Patent US20190218214A1, “Inhibition of BMP Signaling Compounds, Compositions and Uses Thereof” (Vanderbilt University, priority 2016, published 2019)

How the values were obtained:
ALK6 = ALK6 (Homo sapiens, UniProt O00238); assay: Selectivity Ki, ALK6; format: biochemical
ALK4 = molecular target: T1, ALK4 (Homo sapiens, UniProt P36896); assay: Selectivity Ki, ALK4; format: biochemical
T1 sequence (P36896 24-505): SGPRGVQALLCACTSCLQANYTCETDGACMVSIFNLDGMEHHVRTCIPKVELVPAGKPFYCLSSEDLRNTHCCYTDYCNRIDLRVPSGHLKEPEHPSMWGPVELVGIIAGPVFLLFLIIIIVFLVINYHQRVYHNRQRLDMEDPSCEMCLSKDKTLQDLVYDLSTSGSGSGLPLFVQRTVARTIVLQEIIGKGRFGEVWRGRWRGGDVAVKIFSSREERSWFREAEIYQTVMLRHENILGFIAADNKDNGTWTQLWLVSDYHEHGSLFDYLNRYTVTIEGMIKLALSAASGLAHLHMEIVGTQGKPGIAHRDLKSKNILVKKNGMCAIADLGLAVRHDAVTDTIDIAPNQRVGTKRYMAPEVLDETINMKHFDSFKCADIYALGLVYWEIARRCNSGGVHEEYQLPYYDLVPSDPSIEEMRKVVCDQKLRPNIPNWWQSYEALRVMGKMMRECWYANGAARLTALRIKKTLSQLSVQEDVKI

[1] = In vitro DMPK intrinsic clearance, mouse; format: in vitro ADME
ALK1 = ALK1 (Homo sapiens, UniProt P37023); assay: Selectivity Ki, ALK1; format: biochemical
ALK5 = molecular target: T2, ALK5 (Homo sapiens, UniProt P36897); assay: Selectivity Ki, ALK5; format: biochemical
T2 sequence (P36897 34-503): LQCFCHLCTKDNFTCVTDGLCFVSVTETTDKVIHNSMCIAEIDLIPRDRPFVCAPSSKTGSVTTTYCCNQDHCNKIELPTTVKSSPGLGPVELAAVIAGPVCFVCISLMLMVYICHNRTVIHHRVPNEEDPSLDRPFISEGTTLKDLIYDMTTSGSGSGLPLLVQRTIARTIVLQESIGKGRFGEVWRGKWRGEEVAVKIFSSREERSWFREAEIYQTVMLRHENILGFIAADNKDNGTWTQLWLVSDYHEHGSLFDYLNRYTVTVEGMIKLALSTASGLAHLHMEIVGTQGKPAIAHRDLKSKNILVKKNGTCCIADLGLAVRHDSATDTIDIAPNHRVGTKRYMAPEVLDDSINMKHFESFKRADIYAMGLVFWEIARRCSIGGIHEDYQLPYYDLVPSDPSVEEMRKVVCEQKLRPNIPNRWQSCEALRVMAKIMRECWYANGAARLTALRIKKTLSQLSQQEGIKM

[2] = In vitro DMPK intrinsic clearance, human; format: in vitro ADME
TGFβR2 = TGFβR2 (Homo sapiens, UniProt P37173); assay: Selectivity Ki, TGFβR2; format: biochemical
ALK3 = ALK3 (Homo sapiens, UniProt P36894); assay: Selectivity Ki, ALK3; format: biochemical
ALK2 = molecular target: T3, ALK2 (Homo sapiens, UniProt Q04771); assay: Selectivity Ki, ALK2; format: biochemical
T3 sequence (Q04771 21-509): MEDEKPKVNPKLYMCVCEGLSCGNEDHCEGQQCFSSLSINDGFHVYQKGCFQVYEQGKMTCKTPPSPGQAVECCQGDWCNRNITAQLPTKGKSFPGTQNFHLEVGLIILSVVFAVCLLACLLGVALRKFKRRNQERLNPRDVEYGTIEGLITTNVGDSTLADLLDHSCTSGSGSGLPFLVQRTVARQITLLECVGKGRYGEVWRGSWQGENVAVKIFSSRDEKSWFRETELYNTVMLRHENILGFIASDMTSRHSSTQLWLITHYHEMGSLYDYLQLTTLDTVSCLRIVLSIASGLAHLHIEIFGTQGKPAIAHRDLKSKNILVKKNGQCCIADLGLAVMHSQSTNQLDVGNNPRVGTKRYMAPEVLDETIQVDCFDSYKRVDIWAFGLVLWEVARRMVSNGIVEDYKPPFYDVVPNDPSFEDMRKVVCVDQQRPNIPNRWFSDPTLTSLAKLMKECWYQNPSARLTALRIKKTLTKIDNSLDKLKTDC

BMPR2 = molecular target: T4, BMPR2 (Homo sapiens, UniProt Q13873); assay: Selectivity Ki, BMPR2; format: biochemical
T4 sequence (Q13873 27-1038): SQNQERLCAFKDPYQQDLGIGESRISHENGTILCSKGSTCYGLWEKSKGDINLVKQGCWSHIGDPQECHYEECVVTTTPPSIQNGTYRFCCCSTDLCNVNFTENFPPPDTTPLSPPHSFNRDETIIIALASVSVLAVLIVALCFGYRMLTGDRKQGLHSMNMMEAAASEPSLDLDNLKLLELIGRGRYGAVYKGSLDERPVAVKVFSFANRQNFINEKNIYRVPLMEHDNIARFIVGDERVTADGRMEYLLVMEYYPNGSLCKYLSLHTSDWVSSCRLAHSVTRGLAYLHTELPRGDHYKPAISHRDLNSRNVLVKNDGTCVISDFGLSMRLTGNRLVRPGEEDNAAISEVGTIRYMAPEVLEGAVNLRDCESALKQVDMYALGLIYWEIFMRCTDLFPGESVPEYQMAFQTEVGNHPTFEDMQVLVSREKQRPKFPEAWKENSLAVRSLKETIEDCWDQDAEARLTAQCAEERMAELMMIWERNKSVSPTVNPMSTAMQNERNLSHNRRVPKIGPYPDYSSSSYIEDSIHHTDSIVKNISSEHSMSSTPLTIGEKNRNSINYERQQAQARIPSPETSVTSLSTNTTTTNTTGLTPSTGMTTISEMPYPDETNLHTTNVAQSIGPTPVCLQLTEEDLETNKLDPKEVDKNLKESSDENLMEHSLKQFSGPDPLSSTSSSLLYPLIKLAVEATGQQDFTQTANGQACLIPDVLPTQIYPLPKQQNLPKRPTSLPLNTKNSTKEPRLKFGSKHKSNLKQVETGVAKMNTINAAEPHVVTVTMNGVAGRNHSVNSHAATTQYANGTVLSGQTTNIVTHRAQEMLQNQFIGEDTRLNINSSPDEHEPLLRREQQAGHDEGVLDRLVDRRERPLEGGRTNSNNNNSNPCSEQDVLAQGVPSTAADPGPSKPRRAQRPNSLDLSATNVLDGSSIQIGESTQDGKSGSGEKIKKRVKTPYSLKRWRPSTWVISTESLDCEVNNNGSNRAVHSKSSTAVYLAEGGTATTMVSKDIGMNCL

AMPK = assay: Selectivity Ki, AMPK; format: biochemical
hepcidin expression [3] = assay: IRIDA animal model, liver hepcidin mRNA 2 hours after injection; format: in vivo; conditions: Tmprss6−/− mice, 2 hours after injecting (FIG. 13)
Procedure: The efficacy of compounds was shown in an IRIDA animal model. Initially, an exemplary dose and time point was determined in wild type mice. Briefly, liver mRNA and proteins were extracted. Hepcidin and Id1 mRNA expression was measured by real-time PCR and Smad 1-5-8 phosphorylation was assayed by Western blot analysis. FIGS. 10A-10D depict the RT-PCR data for various inflammatory markers in the liver. FIGS. 11A and 11B depict the RT-PCR data for Hamp mRNA and Id1 mRNA expression. FIG. 12A-12C depict the results of the Western blot analysis.

Hepcidin expression [4] = assay: In vitro model of Hepcidin expression (HAMP/HPRT1, alone and with BMP-6); format: cell-based; conditions: as compared to control (FIGS. 6-9)
KDR = KDR (Homo sapiens, UniProt P35968); assay: Selectivity Ki, KDR; format: biochemical
[5] = Plasma protein binding, mouse; format: in vitro ADME; conditions: read-out: Plasma protein binding (% Fu) Mouse
BMP4 = BMP4 biological assay (Table 3); format: cell-based
[6] = Plasma protein binding, human; format: in vitro ADME; conditions: read-out: Plasma protein binding (% Fu) Human
[7] = In vitro DMPK intrinsic clearance, rat; format: in vitro ADME
[8] = Plasma protein binding, rat; format: in vitro ADME; conditions: read-out: Plasma protein binding (% Fu) Rat
[9] = read-out: Intrinsic clearance hCLHEP
[10] = read-out: Intrinsic clearance hCLINT

ALK3, sequence (P36894 24-532, species assumed): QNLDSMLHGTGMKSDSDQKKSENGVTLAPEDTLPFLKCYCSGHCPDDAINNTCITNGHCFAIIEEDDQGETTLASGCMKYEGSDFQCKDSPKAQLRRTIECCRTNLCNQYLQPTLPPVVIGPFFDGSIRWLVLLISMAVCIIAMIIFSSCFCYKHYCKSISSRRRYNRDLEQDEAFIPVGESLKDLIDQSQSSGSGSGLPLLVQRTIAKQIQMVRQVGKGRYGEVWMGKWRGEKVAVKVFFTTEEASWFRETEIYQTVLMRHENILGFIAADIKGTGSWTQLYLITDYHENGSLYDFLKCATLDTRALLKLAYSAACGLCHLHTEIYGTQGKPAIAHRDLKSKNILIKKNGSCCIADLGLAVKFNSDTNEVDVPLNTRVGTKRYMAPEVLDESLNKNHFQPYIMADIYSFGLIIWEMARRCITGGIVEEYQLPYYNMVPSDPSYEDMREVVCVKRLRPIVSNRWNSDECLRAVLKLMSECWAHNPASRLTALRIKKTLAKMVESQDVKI
ALK1, sequence (P37023 22-503, species assumed): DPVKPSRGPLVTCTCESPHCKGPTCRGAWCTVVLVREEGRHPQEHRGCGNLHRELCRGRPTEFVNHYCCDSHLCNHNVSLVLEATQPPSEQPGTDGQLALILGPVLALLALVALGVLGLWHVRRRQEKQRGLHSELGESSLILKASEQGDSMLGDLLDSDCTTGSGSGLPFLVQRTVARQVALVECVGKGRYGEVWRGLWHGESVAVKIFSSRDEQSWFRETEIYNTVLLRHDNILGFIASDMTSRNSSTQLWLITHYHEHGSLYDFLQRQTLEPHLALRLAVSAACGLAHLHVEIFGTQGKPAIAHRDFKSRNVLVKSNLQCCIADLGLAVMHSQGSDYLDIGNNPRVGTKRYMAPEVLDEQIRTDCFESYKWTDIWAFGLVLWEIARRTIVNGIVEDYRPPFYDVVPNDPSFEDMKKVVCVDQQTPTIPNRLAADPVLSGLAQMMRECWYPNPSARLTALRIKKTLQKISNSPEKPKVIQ
TGFβR2, sequence (P37173 23-567): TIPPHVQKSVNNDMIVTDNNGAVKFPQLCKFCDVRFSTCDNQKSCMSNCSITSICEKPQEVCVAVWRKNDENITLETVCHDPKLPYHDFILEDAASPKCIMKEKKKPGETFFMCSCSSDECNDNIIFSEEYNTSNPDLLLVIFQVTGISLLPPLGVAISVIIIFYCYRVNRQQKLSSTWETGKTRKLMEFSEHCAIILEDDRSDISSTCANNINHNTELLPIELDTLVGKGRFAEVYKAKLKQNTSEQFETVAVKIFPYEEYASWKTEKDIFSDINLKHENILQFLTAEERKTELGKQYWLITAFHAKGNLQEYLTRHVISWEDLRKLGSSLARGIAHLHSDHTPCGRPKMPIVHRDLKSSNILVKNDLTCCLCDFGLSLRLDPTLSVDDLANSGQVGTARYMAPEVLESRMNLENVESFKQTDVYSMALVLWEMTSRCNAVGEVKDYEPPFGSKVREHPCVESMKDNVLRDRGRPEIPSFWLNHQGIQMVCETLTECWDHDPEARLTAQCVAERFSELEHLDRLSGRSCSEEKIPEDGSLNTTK
KDR, sequence (P35968 20-1356, species assumed): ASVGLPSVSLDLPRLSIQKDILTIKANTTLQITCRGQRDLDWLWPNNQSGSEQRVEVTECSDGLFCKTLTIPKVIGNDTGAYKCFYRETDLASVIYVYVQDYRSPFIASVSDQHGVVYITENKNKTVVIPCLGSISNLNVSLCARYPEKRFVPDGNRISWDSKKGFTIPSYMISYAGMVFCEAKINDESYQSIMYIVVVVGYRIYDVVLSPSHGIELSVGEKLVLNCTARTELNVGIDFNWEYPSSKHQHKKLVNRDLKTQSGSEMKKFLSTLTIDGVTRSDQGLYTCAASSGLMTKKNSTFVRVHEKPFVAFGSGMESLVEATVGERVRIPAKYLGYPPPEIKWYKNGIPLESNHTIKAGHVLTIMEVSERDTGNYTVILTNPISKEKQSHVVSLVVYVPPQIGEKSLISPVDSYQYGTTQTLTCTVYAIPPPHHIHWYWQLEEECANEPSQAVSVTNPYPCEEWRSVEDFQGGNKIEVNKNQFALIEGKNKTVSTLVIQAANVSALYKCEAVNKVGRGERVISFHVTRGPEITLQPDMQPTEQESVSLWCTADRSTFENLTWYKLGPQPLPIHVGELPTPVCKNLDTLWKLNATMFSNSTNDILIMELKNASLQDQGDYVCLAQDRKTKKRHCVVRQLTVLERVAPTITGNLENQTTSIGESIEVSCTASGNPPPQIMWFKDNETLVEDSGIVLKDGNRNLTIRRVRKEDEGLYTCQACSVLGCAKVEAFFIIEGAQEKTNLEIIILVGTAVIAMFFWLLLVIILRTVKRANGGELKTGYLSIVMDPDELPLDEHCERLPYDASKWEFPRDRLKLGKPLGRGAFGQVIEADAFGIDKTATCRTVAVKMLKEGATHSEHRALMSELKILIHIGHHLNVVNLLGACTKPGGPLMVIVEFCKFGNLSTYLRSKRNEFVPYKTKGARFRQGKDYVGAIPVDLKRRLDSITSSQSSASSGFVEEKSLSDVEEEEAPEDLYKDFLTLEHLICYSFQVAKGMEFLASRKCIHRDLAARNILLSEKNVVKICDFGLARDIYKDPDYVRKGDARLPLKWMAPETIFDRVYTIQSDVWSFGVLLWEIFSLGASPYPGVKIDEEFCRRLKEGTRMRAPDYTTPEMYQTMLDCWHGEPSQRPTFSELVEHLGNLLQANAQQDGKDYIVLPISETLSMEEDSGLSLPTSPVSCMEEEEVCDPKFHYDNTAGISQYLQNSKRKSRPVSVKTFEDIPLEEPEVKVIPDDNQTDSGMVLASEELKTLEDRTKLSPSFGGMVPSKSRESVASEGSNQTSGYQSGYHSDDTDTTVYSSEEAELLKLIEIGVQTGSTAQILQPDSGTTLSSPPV
ALK6, sequence (O00238 14-502): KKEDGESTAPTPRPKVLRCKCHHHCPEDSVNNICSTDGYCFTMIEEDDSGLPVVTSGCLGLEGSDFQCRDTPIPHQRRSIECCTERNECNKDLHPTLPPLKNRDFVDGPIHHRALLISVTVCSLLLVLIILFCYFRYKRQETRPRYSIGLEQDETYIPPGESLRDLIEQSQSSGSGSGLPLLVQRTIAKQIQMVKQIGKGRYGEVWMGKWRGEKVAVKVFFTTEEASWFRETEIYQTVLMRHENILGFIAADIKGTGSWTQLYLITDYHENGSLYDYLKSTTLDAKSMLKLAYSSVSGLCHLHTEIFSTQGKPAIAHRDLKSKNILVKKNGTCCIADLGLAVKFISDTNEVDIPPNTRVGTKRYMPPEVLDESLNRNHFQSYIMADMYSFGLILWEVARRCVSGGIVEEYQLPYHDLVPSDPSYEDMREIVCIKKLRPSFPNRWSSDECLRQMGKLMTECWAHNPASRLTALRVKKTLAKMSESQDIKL

Structure (SMILES) | Ki (ALK1) [nM] | CLint scaled [2, 9] [mL/min/kg] | CLint scaled [2, 10] [mL/min/kg] | Ki (ALK3) [nM] | Ki (ALK2) [nM] | fraction unbound [5] | IC50 (BMP4) [nM] | fraction unbound [6] | further results
COc1ccc2nc(C)cc(-c3cnc4cc(-c5ccc(N6CCN(C(C)=O)CC6)cc5)ccn34)c2c1 [Compound 48] | 4280 | 19.6 | 294 | < 5.1 | 338 | 0.058 | 185 | 0.012 | Ki (ALK6): 965 nM; Ki (ALK4): 144 nM; CLint scaled ([1]; read-out: Intrinsic clearance mCLHEP): 71.5 mL/min/kg; CLint scaled ([1]; read-out: Intrinsic clearance mCLINT): 349 mL/min/kg; Ki (ALK5): 319 nM; Ki (TGFβR2): 196 nM; Ki (BMPR2): > 30000 nM; Ki (AMPK): 8700 nM; Liver hepcidin mRNA expression (hepcidin expression [3]): reduction of hepcidin expression; Hepcidin expression (Hepcidin expression [4]): reduced Hepcidin expression as compared to control; Ki (KDR): 8730 nM
Cc1cc(-c2cnc3cc(-c4ccc(C5CCN(C(C)C)CC5)cc4)ccn23)c2cc(F)ccc2n1 [Compound 168] | 179 | 6.1 | 8.6 | 34.6 | 7.2 | 0.009 | 392 | 0.021 | CLint scaled ([7]; read-out: Intrinsic clearance rCLHEP): 14.5 mL/min/kg; CLint scaled ([7]; read-out: Intrinsic clearance rCLINT): 18.2 mL/min/kg; fraction unbound [8]: 0.014
